Experimental data published in US10570099B2, “Salts of an epidermal growth factor receptor kinase inhibitor” (Celgene CAR LLC, priority 2012, dated 2020).

What was measured:
[1] = Thermodynamic solubility in media of various pH (HPLC; XRPD of excess solids); details: for Thermodynamic Solubility: ca. 24 hours
Procedure: The remaining solids were also analysed by XRPD analysis to establish if any changes in the solid form occurred.
The remaining solids were also analysed by XRPD analysis to establish if any changes in the solid form occurred. For the buffer solutions, KCl/HCl was used for pH 1 and citrate/phosphate combinations for pH 3, 4.5 and 6.6.
The remaining solids were also analysed by XRPD analysis to establish if any changes in the solid form occurred. For the buffer solutions, KCl/HCl was used for pH 1 and citric acid/sodium citrate combinations for pH 3, 4.5 and 6.2.
The solids were then removed by filtration and tested by XRPD analysis. The mother liquors were analyzed by HPLC to determine API solubility.
For the buffer solutions, KCl/HCl was used for pH 1 and citrate/phosphate combinations for pH 3, 4.5 and 6.6 (10 mM). The pH of the solutions was also measured prior to HPLC analysis.

[2] = Dynamic vapour sorption (DVS); assay type: physicochemical
Procedure: For dynamic vapour sorption (DVS), approximately 10-20 mg of sample was placed into a wire mesh vapour sorption balance pan and loaded into a DVS-1 dynamic vapour sorption balance by Surface Measurement Systems. The sample was subjected to a ramping profile from 20-90% relative humidity (RH) at 10% increments, maintaining the sample at each step until a stable weight had been achieved (99.5% step completion). After completion of the sorption cycle, the sample was dried using the same procedure, but all the way down to 0% RH and finally taken back to the starting point of 20% RH. The weight change during the sorption/desorption cycles were plotted, allowing for the hygroscopic nature of the sample to be determined.

[3] = Intrinsic dissolution of compressed discs; assay type: physicochemical
Procedure: A Sotax AT7 dissolution bath (USP 2, EP 2 apparatus) was used for the dissolution study in which paddles were used to stir the media. All tests were carried out at 37° C. and a paddle speed of 100 rpm.
(§1) Approximately 100-120 mg of each form was compressed into discs by placing the material into a die (diameter: 13 mm) and compressing the die under 5 tons of pressure in a hydraulic press for ca. 2 minutes. A Sotax AT7 (conformed to EP2 and USP2) dissolution instrument was used containing paddles to stir the media at 100 rpm. Dissolution media of pH 3 (1% SDS) and pH 4.5 (1% SDS) were prepared using citrate/phosphate buffer. All materials were tested in 750 ml of the buffer medium. Discs were added at time=0 seconds and allowed to sink to the bottom of the dissolution vessel before stirring began. ca. 1 ml aliquots of media were extracted from the dissolution vessels at times 1, 5, 10, 15, 30, 60, 120, 240 minutes and 24 hours, and tested for dissolved salt concentration by HPLC-UV. The dissolution tests were carried out in duplicate. For both dissolution media, the peak areas for the initial time points (up to 15 minutes), fell below the limit of quantification, however, when plotting Dissolution rate vs. time, the steepest part of the curve occurs during these early time points.
as §1, with “material” for “each form”, “API” for “dissolved salt”

[4] = Salt disproportionation study (slurry in deionized water); assay type: physicochemical; details: for pH of the supernatant: deionized water slurry; for Disproportionation study, result of slurrying (XRPD): deionized water, ambient
Procedure: The pH of the supernatant was also monitored.
The hydrobromide salt was slurried in deionised water at ambient temperature (ca. 22° C.). […] The pH of the supernatant was also monitored.

[5] = 1 week stability study (XRPD and HPLC); assay type: physicochemical; details: 1 week
Procedure: (§2) Resulting solids were analysed by XRPD and HPLC to establish if any changes had occurred.
as §2
The resulting solids were analysed by XRPD and HPLC to establish if any changes had occurred.

[6] = 1 week stability of primary screen salts at 40° C./75% RH and 80° C. (open vials, XRPD); assay type: physicochemical; details: listed as Besylate (2 equiv.) Form I
Procedure: (open vials). TGA was carried out after the stability studies for samples containing sufficient material.

[7] = Hydration study (slurry in solvent:water mixtures, XRPD); assay type: physicochemical; details: ambient, ca. 3-4 days
Procedure: The resulting solids were then analyzed by XRPD to determine if any changes had occurred on slurrying.
Slurries of the hydrobromide salt were created in acetone:water mixtures (3%, 5% and 10%) and stirred at ambient for ca. 3 days. The resulting solids were then analysed by XRPD to determine if any changes had occurred on slurrying.
Slurries were created using ca. 200 mg of Form I salt material in 2 mL of the appropriate solvent system. These were stirred at ca. 55° C. for 6 hours.
Slurries were created using ca. 200 mg of Form I salt material in 2 mL of the appropriate solvent system.

[8] = tested on: mutant EGFR kinase; details: enzymatic and cellular assays; cited from earlier work
[9] = Slurry in pH 6.2 aqueous medium (conversion to unknown solid form); assay type: physicochemical; details: slurry as for the hydrobromide at pH 6.2, XRPD
Procedure: In attempts to characterize this form, as well as establish the rate of conversion to this form while slurrying the material, the following experiments were carried out. Initially, approximately 100 mg of the hydrobromide (1 equiv.) material was slurried in a pH 6.2 aqueous solution at ambient and XRPD analysis was carried out at time points 5 min., 1 hr, 2 hrs, 4 hrs and 8 hrs. Further analysis was then also carried out on the converted material.

[10] = tested on: human non-small cell lung cancer cell; details: cited from earlier work
[11] = tested on: human non-small cell lung cancer cell; details: cited from earlier work; remark: listed apart in the source
[12] = 40° C./75% RH, closed (crimped) vial

C=CC(=O)Nc1cccc(Nc2nc(Nc3ccc(N4CCN(C(C)=O)CC4)cc3OC)ncc2C(F)(F)F)c1.O=S(=O)(O)c1ccccc1.O=S(=O)(O)c1ccccc1 [bis-besylate salt]
XRPD of excess solids ([1]; pH 1.0, KCl/HCl): Diffractogram corresponds with the hydrated | Thermodynamic Solubility ([1]; pH 1.0, KCl/HCl buffer): 4930 µg/mL | XRPD of excess solids ([1]; pH 3.0, Citrate/Phosphate): Change in diffractogram - does not correspond | Thermodynamic Solubility ([1]; pH 3.0, Citrate/Phosphate): 240 µg/mL | XRPD of excess solids ([1]; pH 3.0, KHP/HCl): Change in diffractogram - does not correspond | Thermodynamic Solubility ([1]; pH 3.0, KHP/HCl): 260 µg/mL | XRPD of excess solids ([1]; pH 4.5, Citrate/Phosphate): Change in diffractogram - does not correspond | Thermodynamic Solubility ([1]; pH 4.5, Citrate/Phosphate): 430 µg/mL | XRPD of excess solids ([1]; pH 4.5, KHP/NaOH): Change in diffractogram - does not correspond | Thermodynamic Solubility ([1]; pH 4.5, KHP/NaOH): 100 µg/mL | XRPD of excess solids ([1]; pH 6.6, Citrate/Phosphate): Change in diffractogram - does not correspond | Thermodynamic Solubility ([1]; pH 6.6, Citrate/Phosphate): 660 µg/mL | XRPD of excess solids ([1]; pH 6.6, Phosphate/NaOH): Change in diffractogram - does not correspond | Thermodynamic Solubility ([1]; pH 6.6, Phosphate/NaOH): 170 µg/mL | post DVS XRPD analysis (polymorphic form) ([2]; after DVS cycles): change in polymorphic form | water uptake (DVS) ([2]; between 20 and 70% RH): ca. 2.2% | intrinsic dissolution value ([3]; pH 3.0 (1% SDS), early time points, tablet 1): approximately 0.36 mg/cm^2/min | intrinsic dissolution value ([3]; pH 3.0 (1% SDS), early time points, tablet 2): ~0.38 mg/cm^2/min | intrinsic dissolution value ([3]; pH 3.0 (1% SDS), later time points, tablet 1): 0.08 mg/cm^2/min | intrinsic dissolution value ([3]; pH 3.0 (1% SDS), later time points, tablet 2): 0.07 mg/cm^2/min | intrinsic dissolution value ([3]; pH 4.5 (1% SDS), early time points, tablet 1): approximately 0.61 mg/cm^2/min | intrinsic dissolution value ([3]; pH 4.5 (1% SDS), early time points, tablet 2): approximately 0.61 mg/cm^2/min | intrinsic dissolution value ([3]; pH 4.5 (1% SDS), later time points, tablet 1): 0.09 mg/cm^2/min | intrinsic dissolution value ([3]; pH 4.5 (1% SDS), later time points, tablet 2): 0.08 mg/cm^2/min | pH of the supernatant ([4]; 1 hr): pH 2-3 | pH of the supernatant ([4]; 24 hrs): pH 1-2 | pH of the supernatant ([4]; 48 hrs): pH 1-2 | Disproportionation study, result of slurrying (XRPD) ([4]; 1 hr): Yellow gum present. | Disproportionation study, result of slurrying (XRPD) ([4]; 24 hrs): Different from starting material, appears to | Disproportionation study, result of slurrying (XRPD) ([4]; 48 hrs): Different from starting material, appears to | HPLC purity after storage [5, 12]: 97.35% | XRPD after storage [5, 12]: No change in polymorphic form. | HPLC purity after storage ([5]; 40° C./75% RH, open vial): 97.22% | XRPD after storage ([5]; 40° C./75% RH, open vial): Change in polymorphic form, | HPLC purity after storage ([5]; 80° C., open vial): 97.20% | XRPD after storage ([5]; 80° C., open vial): Corresponds predominantly with input | Stability 40° C./75% RH (open conditions) [6]: Solid/gum present. | Hydration study, result of slurrying ([7]; Acetone:water (3%)): Corresponds with the input bis- | Hydration study, result of slurrying ([7]; Acetone:water (10%)): Different from the bis-besylate input

C=CC(=O)Nc1cccc(Nc2nc(Nc3ccc(N4CCN(C(C)=O)CC4)cc3OC)ncc2C(F)(F)F)c1 [Compound 1, N-(3-(2-(4-(4-acetylpiperazin-1-yl)-2-methoxyphenylamino)-5-(trifluoromethyl)pyrimidin-4-ylamino)phenyl)acrylamide]
inhibition of mutant EGFR kinase [8]: selective covalent, irreversible inhibition | solid form after slurry experiment [9]: remained as the free base Form I | inhibition of cell proliferation in vivo [10]: inhibit | inhibition of cell proliferation in vitro [11]: inhibit
